From PMC4858680, “A platinum-based hybrid drug design approach to circumvent acquired resistance to molecular targeted tyrosine kinase inhibitors” (Scientific Reports, 2016)
Read-outs that look alike come from different tables or passages of the source.

Key:
[1] = tested on: phosphor-γ-H2Ax
[2] = tested on: HEK293 Mock transfected; assay: Anticancer activity in mock transfected HEK293; assay type: cell-based; details: Bcr-Abl negative
[3] = tested on: K562 Ima1.0; assay: Anticancer activity in imatinib-selected resistant K562 subline; assay type: cell-based; details: for IC50: read-out: Anticancer activity (IC50) K562 Imatinib selected (K562 Ima1.0), Bcr-Abl amplification
[4] = Chemical stability of the hybrid compounds; details: for chemical stability in culture medium: Dulbecco’s Modified Eagle Medium supplemented with 5 mM glutathione
[5] = tested on: ERK1/2 in K562 Ima1.0
[6] = tested on: K562; assay: Anticancer activity (cytotoxicity) in CML cell line; assay type: cell-based
[7] = molecular target: P-gp (MDCKII–P-gp) (Homo sapiens, UniProt P08183); details: 10 μM, mean of three experiments
[8] = tested on: H292; assay: Anticancer activity (cytotoxicity) in NSCLC cell line; assay type: cell-based; details: NSCLC; EGFR wild type; read-out: Anticancer activity (IC50) H292
[9] = tested on: HCC827; assay: as above; assay type: cell-based; details: EGFR ΔE746-A750 (sensitizing)
[10] = tested on: p38; assay: Western blot analysis of p38 phosphorylation; assay type: cell-based
[11] = tested on: HEK293 Bcr-Abl E255K; assay: Anticancer activity in HEK293 stably transfected with Bcr-Abl E255K; assay type: cell-based; details: for IC50: stably transfected
[12] = tested on: HEK293 Bcr-Abl wild type; assay: Anticancer activity in HEK293 stably transfected with wild type Bcr-Abl; assay type: cell-based
[13] = tested on: RPMI8226; assay: Anticancer activity (cytotoxicity) in Bcr-Abl negative cell line; assay type: cell-based
[14] = tested on: H1975; assay: Anticancer activity (cytotoxicity) in NSCLC cell line; assay type: cell-based; details: H1975 versus HCC827
[15] = molecular target: T1, ABCG2 (Homo sapiens, UniProt Q9UNQ0, R482G); assay: 5D3 shift assay; assay type: cell-based; details: ABCG2-overexpressing S1M1-80 cells; flow cytometry
T1 construct: endogenous in cells; host or cells: S1M1-80

[16] = molecular target: P-gp (Homo sapiens, UniProt P08183); assay: UIC2 shift assay; assay type: cell-based; design: endogenous in cells; host or cells: SW620 Ad300; details: P-gp overexpressing SW620 Ad300 cells; flow cytometry
[17] = CML cell line, Bcr-Abl positive, Table 1, read-out: Anticancer activity (IC50) K562
[18] = Table 2, read-out: Anticancer activity (IC50) K562 Sensitive parental

Chain of P-gp (MDCKII–P-gp) (P08183 whole entry): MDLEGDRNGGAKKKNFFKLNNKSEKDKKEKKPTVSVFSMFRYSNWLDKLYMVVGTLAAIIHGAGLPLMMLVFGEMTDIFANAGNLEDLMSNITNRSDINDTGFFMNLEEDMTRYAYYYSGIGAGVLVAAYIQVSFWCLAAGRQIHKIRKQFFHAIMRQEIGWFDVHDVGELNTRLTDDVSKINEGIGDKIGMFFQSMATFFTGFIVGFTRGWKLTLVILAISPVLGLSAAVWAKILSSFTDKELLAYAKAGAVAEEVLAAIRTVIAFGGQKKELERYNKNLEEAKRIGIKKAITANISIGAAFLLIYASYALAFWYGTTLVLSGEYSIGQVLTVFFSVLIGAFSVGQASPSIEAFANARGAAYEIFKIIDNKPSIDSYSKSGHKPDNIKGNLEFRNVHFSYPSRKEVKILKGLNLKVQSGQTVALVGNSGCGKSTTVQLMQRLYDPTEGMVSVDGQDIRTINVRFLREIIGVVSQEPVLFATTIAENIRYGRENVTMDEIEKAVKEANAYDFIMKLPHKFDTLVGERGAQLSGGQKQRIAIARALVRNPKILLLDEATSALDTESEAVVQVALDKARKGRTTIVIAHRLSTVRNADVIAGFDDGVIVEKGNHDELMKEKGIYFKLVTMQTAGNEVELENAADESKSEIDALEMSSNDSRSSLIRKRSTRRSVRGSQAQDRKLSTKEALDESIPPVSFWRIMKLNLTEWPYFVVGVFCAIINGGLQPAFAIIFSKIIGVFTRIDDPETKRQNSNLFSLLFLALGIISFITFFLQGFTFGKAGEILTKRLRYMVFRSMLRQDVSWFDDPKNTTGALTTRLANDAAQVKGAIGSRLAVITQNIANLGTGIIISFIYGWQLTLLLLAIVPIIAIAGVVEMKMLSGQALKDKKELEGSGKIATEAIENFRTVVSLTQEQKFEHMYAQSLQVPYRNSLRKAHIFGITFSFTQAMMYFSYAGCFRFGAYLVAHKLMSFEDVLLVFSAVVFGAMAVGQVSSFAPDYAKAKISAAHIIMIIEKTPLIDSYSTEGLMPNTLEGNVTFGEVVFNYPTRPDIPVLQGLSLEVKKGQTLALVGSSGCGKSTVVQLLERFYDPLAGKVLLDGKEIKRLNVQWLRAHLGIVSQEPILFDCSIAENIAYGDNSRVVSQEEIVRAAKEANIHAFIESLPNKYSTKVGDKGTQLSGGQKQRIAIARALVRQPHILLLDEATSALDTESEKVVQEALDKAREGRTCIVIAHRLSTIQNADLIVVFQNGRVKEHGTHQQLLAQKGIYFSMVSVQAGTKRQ
T1 sequence (Q9UNQ0 whole entry R482G): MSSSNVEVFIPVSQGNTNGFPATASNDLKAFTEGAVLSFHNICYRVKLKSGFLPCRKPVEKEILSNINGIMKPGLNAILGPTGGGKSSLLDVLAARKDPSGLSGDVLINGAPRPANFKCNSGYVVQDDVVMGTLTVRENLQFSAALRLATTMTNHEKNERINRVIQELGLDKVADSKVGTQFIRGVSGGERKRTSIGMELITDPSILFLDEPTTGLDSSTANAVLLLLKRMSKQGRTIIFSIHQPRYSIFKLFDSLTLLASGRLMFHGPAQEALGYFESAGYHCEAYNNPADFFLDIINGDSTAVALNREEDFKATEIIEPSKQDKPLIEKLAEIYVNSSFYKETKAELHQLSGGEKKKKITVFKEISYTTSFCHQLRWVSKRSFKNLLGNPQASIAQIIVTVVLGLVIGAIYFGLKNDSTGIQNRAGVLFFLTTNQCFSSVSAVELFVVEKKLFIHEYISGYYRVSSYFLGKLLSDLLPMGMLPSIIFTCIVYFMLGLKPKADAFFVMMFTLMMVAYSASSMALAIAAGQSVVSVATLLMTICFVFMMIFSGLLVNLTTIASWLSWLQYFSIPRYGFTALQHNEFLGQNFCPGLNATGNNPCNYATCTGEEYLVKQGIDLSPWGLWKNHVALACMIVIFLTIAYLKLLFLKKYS
Chain of P-gp (P08183 whole entry): as the sequence (P08183 whole entry) above

**Q.** Which “DNA damage marker (phosphor-γ-H2Ax) (Western blot)” value [1] does the source give for Cc1ccc(NC(=O)c2ccc(CN3CCN(C)CC3)cc2)cc1Nc1nccc(-c2cccnc2)[n+]1[Pt@SP3-2]([NH3+])([NH3+])[Cl] [1c, transplatin-imatinib] here?
**A.** concentration dependent upregulation

**Q.** And the IC50 [2]?
**A.** 10.1 ± 1.39 µM

**Q.** And the IC50 [3]?
**A.** 1.05 ± 0.14 µM

**Q.** What about the “chemical stability in culture medium” value [4] of the same compound?
**A.** undergo gradual degradation to release the original TKI

**Q.** What about the “activation of downstream ERK1/2 (Western blot)” value [5] of the same compound?
**A.** able to inhibit the activation

**Q.** What about the IC50 [6, 17] of the same compound?
**A.** 1.04 ± 0.01 µM

**Q.** And the IC50 [6, 18]?
**A.** 1.04 ± 0.01 µM

**Q.** For C#Cc1cccc(Nc2c3cc(OCCOC)c(OCCOC)cc3nc[n+]2[Pt-2]2([Cl])[NH2+]C3CCCCC3[NH2+]2)c1 (stereo not drawn) [2b, oxaliplatin-erlotinib], which “A to B transport (apparent permeability)” value [7] is on record?
**A.** 6.59 × 10^−6

**Q.** What about the IC50 [8] of the same compound?
**A.** 1.33 ± 0.39 µM

**Q.** What about the “chemical stability in all conditions tested” value ([4]; saline, phosphate buffered solution (pH 4 and 7.4), culture medium with 5 mM glutathione) of the same compound?
**A.** stable

**Q.** For C#Cc1cccc(Nc2c3cc(OCCOC)c(OCCOC)cc3nc[n+]2[Pt@SP3-2]([NH3+])([NH3+])[Cl])c1 [2c, transplatin-erlotinib], which “A to B transport (apparent permeability)” value [7] is on record?
**A.** 3.57 × 10^−6

**Q.** What about the “B to A transport (apparent permeability)” value [7] of the same compound?
**A.** 3.40 × 10^−6

**Q.** What about the “chemical stability in culture medium” value [4] of the same compound?
**A.** undergo gradual degradation to release the original TKI

**Q.** Which IC50 [8] does the source give for COc1cc2c(Nc3ccc(Br)cc3F)[n+]([Pt@SP2-2]([NH2])([NH3+])[Cl])cnc2cc1OCC1CCN(C)CC1 [3a, cisplatin-vandetanib] here?
**A.** 26.4 ± 3.19 µM

**Q.** Which IC50 [8] does the source give for COc1cc2c(Nc3ccc(Br)cc3F)[n+]([Pt@SP3-2]([NH2])([NH3+])[Cl])cnc2cc1OCC1CCN(C)CC1 [3c, transplatin-vandetanib] here?
**A.** 18.4 ± 4.48 µM

**Q.** For N.N.[Cl][Pt][Cl] [Cisplatin], which IC50 [9] is on record?
**A.** 6.65 ± 1.66 µM

**Q.** What about the “p38 phosphorylation (Western blot)” value [10] of the same compound?
**A.** induce p38 phosphorylation

**Q.** What about the IC50 [11] of the same compound?
**A.** 6.54 ± 0.49 µM

**Q.** What about the IC50 [2] of the same compound?
**A.** 5.43 ± 0.72 µM

**Q.** And the IC50 [3]?
**A.** 17.5 ± 1.06 µM

**Q.** And the IC50 [12]?
**A.** 8.16 ± 1.01 µM

**Q.** And the IC50 [8]?
**A.** 2.12 ± 0.87 µM

**Q.** What about the IC50 [13] of the same compound?
**A.** 2.97 ± 0.82 µM

**Q.** And the IC50 [6, 17]?
**A.** 19.8 ± 1.42 µM

**Q.** And the IC50 [6, 18]?
**A.** 19.8 ± 1.42 µM

**Q.** Which results are given for O=C1[O][Pt]2([NH][C@@H]3CCCC[C@H]3[NH]2)[O]C1=O [Oxaliplatin]?
**A.** IC50 [9]: 3.6 ± 1.76 µM; IC50 [11]: 2.65 ± 0.71 µM; Fold resistance HEK293 Bcr-Abl E255K ([11]; versus HEK293 Bcr-Abl wild type): 0.8; IC50 [2]: 2.41 ± 0.32 µM; IC50 [3]: 16.4 ± 1.14 µM; Fold resistance K562 Ima1.0 ([3]; versus sensitive parental K562): 1.0; IC50 [12]: 3.15 ± 0.87 µM; Fold resistance (IC50 in H1975/IC50 in HCC827) [14]: 1.4; IC50 [8]: 3.77 ± 0.35 µM; IC50 [13]: 0.43 ± 0.04 µM; IC50 [6, 17]: 16.6 ± 2.08 µM; IC50 [6, 18]: 16.6 ± 2.08 µM

**Q.** For O=c1c(O)c(-c2ccc(O)c(O)c2)oc2cc(O)cc(O)c12 [quercetin], which “5D3 shift (interaction with ABCG2)” value [15] is on record?
**A.** concentration dependent antibody shift

**Q.** With C=C[C@H]1C[N@@]2CC[C@H]1C[C@H]2[C@H](O)c1ccnc2ccc(OC)cc12 [quinine] as the compound, how does the “UIC2 shift (interaction with P-gp)” value [16] read?
**A.** concentration dependent antibody shift
